Data on 10 compounds can be found in patent US8362008B2 (The University Of Edinburgh, priority 2007, dated 2013).

One assay addresses T1, human 11β-HSD1 enzyme (Homo sapiens, UniProt P28845).
T1 construct: stably transfected with a construct containing the full-length gene coding for the human 11β-HSD1 enzyme; expressed in transfected cells; host or cells: HEK293 (HEK293/11β-HSD1 cells)
The experiment in a line: Cellular in vitro 11β-HSD1 enzyme inhibition assay (SPA, HEK293/11β-HSD1 cells). The format is cell-based. The gist of the method:
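Stably transfected HEK293 cells expressing full-length human 11β-HSD1 were plated 24 h, then incubated with compound 2 h at 37 °C; cortisol formed was quantified by SPA with anti-cortisol antibody. Percent inhibition used no-cell (minimum) and no-compound (maximum) wells; IC50 from four-parameter logistic fit.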

In a further assay the target is T2, human 11β-HSD2 (Homo sapiens, UniProt P80365).
T2 construct: CHO cells stably transfected with the full-length gene coding for human 11β-HSD2 were used; expressed in transfected cells; host or cells: CHO
T2 sequence (P80365 1-405): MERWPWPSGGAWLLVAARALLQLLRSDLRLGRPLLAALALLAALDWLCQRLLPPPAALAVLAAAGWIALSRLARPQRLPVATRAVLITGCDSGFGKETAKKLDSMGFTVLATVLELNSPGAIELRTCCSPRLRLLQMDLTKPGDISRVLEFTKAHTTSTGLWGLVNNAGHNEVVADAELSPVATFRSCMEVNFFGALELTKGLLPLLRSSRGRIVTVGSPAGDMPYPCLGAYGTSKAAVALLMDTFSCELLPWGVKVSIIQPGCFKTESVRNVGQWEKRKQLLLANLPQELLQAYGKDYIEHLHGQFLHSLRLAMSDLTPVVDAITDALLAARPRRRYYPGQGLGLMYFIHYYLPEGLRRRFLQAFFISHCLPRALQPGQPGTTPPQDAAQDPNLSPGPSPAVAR
The assay can be described thus: Cellular in vitro 11β-HSD2 enzyme inhibition assay (CHO cells, TLC/phosphoimager). The format is cell-based. The note with it: CHO cells stably transfected with human 11β-HSD2; Table 1. As to the method: Cellular In Vitro 11β-HSD2 Enzyme Inhibition Assay
For measurement of inhibition of 11β-HSD2, CHO cells stably transfected with the full-length gene coding for human 11β-HSD2 were used. Assays were carried out in 96-well microplates containing 1×10^5 cells/well. Controls and compounds were plated as above, so that the final DMSO concentration in each well was 1%. To initiate the assay, 90 μL of a solution of HAMS F-12 medium containing 1% glutamine, 1% penicillin and streptomycin, and 22 nM tritiated cortisol was added to each well of the assay plate. The plate was then incubated in 5% CO2, 95% O2 at 37° C. for 16 hours.
The assay solutions were transferred to glass tubes and 20 μL ethyl acetate added to each tube. Each tube was vortexed thoroughly and the upper layer containing the tritiated steroid transferred to a fresh glass tube. The solvent was evaporated by placing the tubes in a heating block at 65° C. under a stream of Nitrogen gas. 20 μL ethanol was added to each of the dried samples and vortexed briefly. Each sample was applied to a silica TLC plate and the plate dried. The plate was placed vertically in a glass tank containing 92% chloroform:8% ethanol and the solvent allowed to rise up the plate. The plate was dried, placed in an imaging cassette, and overlayed with a tritium imaging plate for 1-2 days. The amount of enzyme inhibition in each sample was determined by measuring the intensity of the substrate and product spots using a phosphoimager.
IC50 values for inhibitors were determined as described for 11β-HSD1.

[1] abbreviates: HEK293, less than or equal to 1000 nM (1 μM).
[2] abbreviates: HEK293 cells stably transfected with human 11β-HSD1, Table 1.

T1 sequence (P28845 whole entry): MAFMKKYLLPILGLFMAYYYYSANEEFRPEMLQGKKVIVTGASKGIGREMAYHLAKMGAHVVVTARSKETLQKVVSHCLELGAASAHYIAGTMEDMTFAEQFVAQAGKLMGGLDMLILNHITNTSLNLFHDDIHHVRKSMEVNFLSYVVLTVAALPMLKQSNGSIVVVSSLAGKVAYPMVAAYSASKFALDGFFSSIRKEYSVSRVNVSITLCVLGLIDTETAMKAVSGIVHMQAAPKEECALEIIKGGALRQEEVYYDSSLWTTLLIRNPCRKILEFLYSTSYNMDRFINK

Take `CS(=O)(=O)NCCNC(=O)N1CCC(c2cc(C(=O)N3CCCC4CCCCC43)cs2)CC1` (stereo not drawn) [CC-168, cis-4-[4-(Octahydro-quinoline-1-carbonyl)-thiophen-2-yl]-piperidine-1-carboxylic acid(2-methanesulfonylamino-ethyl)-amide]: the figures for the IC50 against human 11β-HSD1 enzyme (setting [1]), against human 11β-HSD1 enzyme (setting [2]) and against human 11β-HSD2 were not above 1000 nM, 77 nM and more than 10000 nM, respectively.
On to `CC1(C)CCCN(C(=O)c2csc(C3CCOCC3)c2)C1` [CC-003], for which the IC50 (as a rule, the point on the concentration scale where inhibition reaches its midpoint) was not above 1000 nM on human 11β-HSD1 enzyme (setting [1]), 150 nM against human 11β-HSD1 enzyme (setting [2]) and more than 10000 nM against human 11β-HSD2.
For `CC1(C)CCCN(C(=O)c2csc(C3CCN(C(=O)NCCO)CC3)c2)CC1` [CC-175], the IC50 was not above 1000 nM on human 11β-HSD1 enzyme (setting [1]), 23 nM at human 11β-HSD1 enzyme (setting [2]) and more than 10000 nM against human 11β-HSD2.
On to `O=C(c1csc(C2CCNCC2)c1)N1CCC[C@@H]2CCCC[C@@H]21` (single isomer, unassigned) [CC-033, cis-(octahydro-quinolin-1-yl)-(5-piperidin-4-yl-thiophen-3-yl)-methanone], for which the IC50 at human 11β-HSD1 enzyme (setting [2]) was 127 nM; against human 11β-HSD2, more than 10000 nM.
Take `O=C(c1csc(C2CCCCC2)c1)N1CCCCCC1` [DD-002, Azepan-1-yl-(5-cyclohexyl-thiophen-3-yl)-methanone]: the IC50 at human 11β-HSD1 enzyme (setting [1]) is not above 1000 nM; on human 11β-HSD1 enzyme (setting [2]), 882 nM; against human 11β-HSD2, more than 10000 nM.
As to `CNC(=O)N1CCC(c2cc(C(=O)N3CCCC4CCCCC43)cs2)CC1` (centres unmarked) [CC-106], the IC50 on human 11β-HSD1 enzyme (setting [1]) was not above 1000 nM; against human 11β-HSD1 enzyme (setting [2]), 96 nM; against human 11β-HSD2, more than 10000 nM.
Regarding `CCc1cc(C(=O)N2CC3(C)CC2CC(C)(C)C3)cs1` (centres unmarked) [AA-014, (5-Ethyl-thiophen-3-yl)-(1,3,3-trimethyl-6-aza-bicyclo[3.2.1]oct-6-yl)-methanone], the figures for the IC50 against human 11β-HSD1 enzyme (setting [1]), against human 11β-HSD1 enzyme (setting [2]) and at human 11β-HSD2 were not above 1000 nM, 4 nM and more than 10000 nM, respectively.
Take `COCc1cc(C(=O)N2CCCC3(CCCCC3)C2)cs1` [BB-007]: the IC50 on human 11β-HSD1 enzyme (setting [1]) is not above 1000 nM; against human 11β-HSD1 enzyme (setting [2]), 68 nM; at human 11β-HSD2, more than 10000 nM.
Regarding `CC(=O)N1CCC(c2cc(C(=O)N3CCC[C@@H]4CCCC[C@@H]43)cs2)C1` (relative stereo) [CC-111, cis-1-{3-[4-(Octahydro-quinoline-1-carbonyl)-thiophen-2-yl]-pyrrolidin-1-yl}ethanone], the IC50 is not above 1000 nM on human 11β-HSD1 enzyme (setting [1]), 20 nM against human 11β-HSD1 enzyme (setting [2]) and more than 10000 nM at human 11β-HSD2.
For the compound `CCc1cc(C(=O)N2CCCCC2)c(Cl)s1` [AA-001, (2-Chloro-5-ethyl-thiophen-3-yl)-piperidin-1-yl-methanone], the half-maximal inhibitory concentration (IC50) on human 11β-HSD1 enzyme (setting [1]) is not above 1000 nM; on human 11β-HSD1 enzyme (setting [2]), 281 nM; against human 11β-HSD2, more than 10000 nM.
